Measurements reported in patent US20140106387A1, “METHOD FOR CONTROLLING NAD(P)/NAD(P)H RATIO BY OXIDOREDUCTASE” (MD BIOALPHA CO., LTD., priority 2006, published 2014).

Assays:
[1] = tested on: HepG2 cells; assay: intracellular ATP, ADP and AMP levels by LC-MS in HepG2; assay type: cell-based, human; conditions: HepG2, 10 μM, 2 hours
Description: Samples were analyzed using an Agilent 1100 series LC/MSD system equipped with G1322A degasser, G1312A binary pump, G1315A photo-diode-array detector, 59987A electrospray interface and 5989B mass spectrometer. ES-MS analysis was performed using an Agilent 5989 electrospray (ES) mass spectrometer (MS) with an Agilent Atmospheric Pressure Ionization (API) interface fitted with a hexapole ion guide. Chromatogram was automatically integrated with the aid of Chemstation software, and concentrations were determined using a standard calibration curve.
Acid extraction was used for analysis of an AOPN concentration in the cells and liver tissues. 400 μl of 6% HClO4 was added to the cells cultured in a 100 mm dish, whereas a two-fold volume of 6% HClO4 was added to the liver tissues which were then immediately homogenized. Each mixture was centrifuged at 14,000 g and 4° C. for 10 min, and the resulting supernatants were neutralized by addition of 1 M borate buffer (pH 11) containing 4 mM EDTA in an amount of 75%. Samples were aliquoted and stored at a temperature of −80° C.
A mobile phase was 100 mM ammonium acetate:MeOH (98:2, v/v), and preparations were filtered through a 0.22-μm Millipore filter. A flow rate was set to 0.8 mL/min and detection was made at 254 nm. Separation was carried out using a ZORBAX Bonus-RP C18 column (3.5 μm, 4.6×150 mm I.D., Waters, USA). […]

[2] = tested on: mRNAs in liver, adipose and muscle tissues; assay: real-time quantitative PCR / microarray of gene expression in tissues of DIO mice; assay type: in vivo, mouse
Description: Animals were continuously fed high-fat diet pellets for 3 to 4 weeks, thereby establishing DIO mice. Mice were raised in a breeding room with a 12 h/12 h light/dark D) cycle. Animals were divided into three groups, i.e., a group with administration of physiological saline (n=3), a group with administration of a vehicle (n=5) and a group with administration of 50 mg/kg of a candidate compound (n=7). Samples were orally administered to animals every day. On Days 7, 28 and 56, each tissue was removed, frozen in liquid nitrogen, and stored at […] for short and long periods of time.
On Days 7, 28 and 56, liver, adipose and muscle tissues were isolated from two groups of diet-induced DIO mice and total RNAs were extracted using Trizol. cDNAs were synthesized using 1 μg of total RNAs, and polymerase used for PCR was prepared using M-MLV polymerase according to a method instructed by the manufacturer. Real-time quantitative PCR was carried out using the prepared cDNAs.
A cDNA microarray analysis was carried out using an affymetrix mouse genome 430A 2.0 array chip. Using trizol, about 13 μg of total RNA was extracted in a concentration of more than 1 μg/1 μl from liver, adipose and muscle tissues of DIO mice on Days 7, 28 and 56, followed by a microarray analysis. Functional classification was made using NetAffx which is available from the Affymetrix website.
Adipose, liver or muscle tissues were pooled from male mice treated with a vehicle or a candidate compound for 4 weeks and the pooled tissues were subjected to microarray analysis. Total RNA was prepared from the tissues homogenized with a Trizol reagent (Invitrogen, Carlsbad, Calif.). Probes for the microarray analysis were prepared from 10 μg of the total RNA, and hybridized to Mouse 430A GeneChips (Affymetrix, Santa Clara, Calif.). The hybridized array was scanned, and raw data was extracted using Microarray Analysis Suite 5.0 (Affymetrix). For PCR quantitation, 1 μg of total RNA was reversely transcribed into cDNA using Superscript II and oligo(dT) primers. The constructed cDNA was amplified with the LightCycler FastStart DNA Master SYBR Green I kit and LightCycler, according to the manufacturer's instruction (Roche Diagnostics, Indianapolis, Ind.). Expression data were normalized to β-actin expression.
In order to investigate anti-obesity effects of an NQO1 activator, the NQO1 activator was administered daily to DIO mice at a dose of 50 mg/kg via an oral route, and an attempt was made to confirm levels of mRNAs of acetyl CoA carboxylase (ACC) 1, ACC2, fatty acid synthase (FAS), lipoprotein lipase (LPL), and stearoyl-CoA desaturase 1 (SCD1), which participate in lipid metabolism in the hepatic and gonadal adipose tissues, by real-time quantitative PCR. These enzymes are very important for lipid metabolism; it is known that ACC catalyzes formation of malonyl CoA from acetyl CoA, FAS catalyzes formation of palmitate from malonyl CoA, and SCD1 catalyzes formation of monounsaturated fat, thus playing a critical role in formation of triacylglycerol, a major energy store. Therefore, these enzymes are closely correlated with obesity, diabetes, and lipid metabolism-related diseases. […] Therefore, from the results of such increased or decreased expression of genes for the above-mentioned enzymes, it can be inferred that NQO1 will be feasible as a therapeutic target for the treatment of metabolic diseases.
In order to investigate effects of βL on the expression of genes involved in glucose and fat metabolism in liver, skeletal muscle and white adipose tissue (WAT), experiments were caned out using gene expression microarray analysis and mouse A42 Affymetrix GeneChip.

[3] = tested on: cardiomyocytes; assay: mitochondrial membrane potential (TMRE fluorescence) in cardiomyocytes; assay type: cell-based
Description: For determination of the inner mitochondrial membrane potential (ΔΨm), 20 nM of TMRE (tetramethylrhodamine ethyl ester) as a fluorescent indicator was continuously applied to be loaded on cells. In order to monitor mitochondrial Ca^2+, cells on glass coverslips were loaded with 10 μM Rhod-2 AM via cold loading/warm incubation. In order to monitor cytosolic Ca^2+, cells were co-loaded with 10 μM Fluo-4 AM at 37′C for 30 min. The cells were washed twice with a KB solution, and mounted in a perfusion chamber. Fluorescent imaging was taken using a confocal laser scanning microscope (LSM-510 META, Carl Zeiss) at a magnification of ×200 and ×400, in conjunction with appropriate laser lines and a filter set. Image analysis was carried out using LSM-510 META software (Zeiss). Images for TMRE (red fluorescence), Rhod-2 (red fluorescence) and Fluo-4 (green fluorescence) were obtained using an inverted Zeiss 510META laser-scanning confocal microscope equipped with ×63 numerical aperture, 1.4 oil-immersion planapochromat lens. Green fluorescence and red fluorescence were illuminated with light of 488 nm and 543 nm. Incident light was passed through a 545 nm dichroic mirror and observed via a 500 to 530 nm band-pass (green) filter and a 560 nm long-pass (red) barrier filter.
However, such effects were not observed in HEK293 cells. […]

[4] = DIO mice, 50 mg/kg daily oral, liver and gonadal adipose tissues
[5] = gonadal adipose tissues, Days 7, 28 and 56, 50 mg/kg daily oral

CC1(C)CCC2=C(O1)c1ccccc1C(=O)C2=O [βL, 2,2-Dimethyl-3,4-dihydro-2H-benzo[h]chromene-5,6-dione]
time at which ATP amount was minimum and AMP amount maximum [1]: 30 min
LPL mRNA level increase compared to control ([2]; DIO mice, 50 mg/kg daily oral): approximately 2 fold
increase in mRNA levels of PPAR gamma ([2]; DIO mice, 50 mg/kg daily oral): two-fold
mRNA of PPAR alpha ([2]; DIO mice, 50 mg/kg daily oral): not changed
mRNAs of AOX, AMPK alpha 1, AMPK alpha 2 and carnitine palmitoyltransferase 1 ([2]; DIO mice, 50 mg/kg daily oral): increased levels
expression levels of mRNAs of ACC1 and ACC2, FAS, LPL, and SCD1 ([2]; DIO mice, 50 mg/kg daily oral, hepatic and gonadal adipose tissues): remarkably decreased
HK2 mRNA level [2, 4]: decreased
mRNA levels of UCP1 & 2 [2, 4]: significant increases
mRNAs of GLUT2 and GLUT4 [2, 4]: significant increases
mRNAs of PGC1α, NRF1, mtTFA, COX4 and COX7 [2, 4]: increased levels of mRNAs for all enzymes
expression of LPL, ATGL, PPARα, SIRT1, Glut2 and Glut4 ([2]; adipose tissues, vs vehicle-treated mice): higher
transcripts of SIRT1, SIRT3 and SIRT6 [2, 5]: significantly increased
transcripts of SIRT2, SIRT5 and SIRT7 [2, 5]: did not exhibit any noticeable difference
expression of PGC-1α and NRF-1 ([2]; liver and muscle, βL-treated vs vehicle-treated mice): significantly induced
expression of COX4, COX7, AOX, UCP2 and UCP3 ([2]; muscle): strongly upregulated
expression of GLUT 2 and GLUT 4 ([2]; muscle): induced
expression of Sirt1 and Sirt3 ([2]; muscle and WAT): induced
decrease of TMRE fluorescence [3]: about 20%
